Measured values as given in ChEMBL document CHEMBL3822432, “Antibacterial and anticancer activity of a series of novel peptides incorporating cyclic tetra-substituted C(α) amino acids” (Bioorg Med Chem, 2016).
In brackets after ≈: the same amount, converted by molar mass. Non-standard residues stand in square brackets, D forms with d. Residues, ends and D or L forms follow the SMILES beside them. Ac6c = NC1(C(=O)O)CCCCC1

Experiments:
[1] = tested on: Salmonella enterica subsp. enterica serovar Typhimurium str. LT2; assay: (§1) Antibacterial activity against Salmonella enterica LT2 Typhimurium ATCC 15277 by two fold serial dilution method; format: functional
Acinetobacter baumannii [2] = assay: Antibacterial activity against Acinetobacter baumannii B5W71 ATCC 15149 by two fold serial dilution method; format: functional
Pseudomonas aeruginosa [3] = assay: Antibacterial activity against Pseudomonas aeruginosa Boston 41501 ATCC 27853 by two fold serial dilution method; format: functional
Klebsiella aerogenes [4] = assay: Antibacterial activity against carbapenem-resistant Enterobacter aerogenes NCDC819-56 ATCC 13048 by two fold serial dilution method; format: functional
Enterococcus faecalis = assay: Antibacterial activity against Enterococcus faecalis Portland ATCC 29212 by two fold serial dilution method; format: functional; conditions: ATCC 29212 Portland
[5] = tested on: Burkholderia pseudomallei; assay: Antibacterial activity against Burkholderia pseudomallei AHS 1 NCTC 8016 by two fold serial dilution method; format: functional
[6] = as §1; format: functional
RL = assay: Antiproliferative activity against human RL cells after 72 hrs by Celltiter-Glo luminescent cell viability assay; format: functional, cell-based
[7] = Antibacterial activity against Francisella tularensis SCHU S4 NR-643 by two fold serial dilution method; format: functional
[8] = Antibacterial activity against carbapenem-resistant Klebsiella pneumoniae K6 ATCC 700603 by two fold serial dilution method; format: functional, Klebsiella pneumoniae 700603
[9] = Antiproliferative activity against human COLO205 cells after 72 hrs by Celltiter-Glo luminescent cell viability assay; format: functional, cell-based; conditions: COLO 205, 72 h
Enterococcus faecium = assay: Potency index, ratio of Ac-GF-Tic-Oic-GK-Tic-Oic-GF-Tic-Oic-GK-Tic-KKKK-CONH2 MIC to compound MIC for Enterococcus faecium; format: functional
[10] = Antiproliferative activity against human DLD1 cells after 72 hrs by Celltiter-Glo luminescent cell viability assay; format: functional, cell-based; conditions: DLD-1, 72 h
Neisseria gonorrhoeae = assay: Antibacterial activity against Neisseria gonorrhoeae F-18 ATCC 49226 by two fold serial dilution method; format: functional
[11] = Antiproliferative activity against human UACC62 cells after 72 hrs by Celltiter-Glo luminescent cell viability assay; format: functional, cell-based; conditions: UACC-62, 72 h
MCF7 = assay: Antiproliferative activity against human MCF7 cells after 72 hrs by Celltiter-Glo luminescent cell viability assay; format: functional, cell-based; conditions: MCF7, 72 h
[12] = Antibacterial activity against Bacillus anthracis Ames NR-3838 by two fold serial dilution method; format: functional, Bacillus anthracis str. Ames
Staphylococcus aureus [13] = assay: Antibacterial activity against Staphylococcus aureus Seattle 1945 ATCC 25923 by two fold serial dilution method; format: functional
NCI-H69 = assay: Antiproliferative activity against human NCI-H69 cells after 72 hrs by Celltiter-Glo luminescent cell viability assay; format: functional, cell-based; conditions: NCI-H69, 72 h
[14] = Antibacterial activity against Yersinia pestis CO92 NR641 by two fold serial dilution method; format: functional
A549 = assay: Antiproliferative activity against human A549 cells after 72 hrs by Celltiter-Glo luminescent cell viability assay; format: functional, cell-based; conditions: A549, 72 h
Acinetobacter baumannii [15] = assay: Potency index, ratio of Ac-GF-Tic-Oic-GK-Tic-Oic-GF-Tic-Oic-GK-Tic-KKKK-CONH2 MIC to compound MIC for Acinetobacter baumannii B5W71 ATCC 15149; format: functional
Staphylococcus aureus [16] = assay: Antibacterial activity against methicillin-resistant Staphylococcus aureus USA 300 NRS 384 by two fold serial dilution method; format: functional
Streptococcus pneumoniae = assay: Antibacterial activity against Streptococcus pneumoniae 262 ATCC 49619 by two fold serial dilution method; format: functional
[17] = Antibacterial activity against Clostridium difficile VIP 10463 ATCC 43255 by two fold serial dilution method; format: functional, Clostridium difficile ATCC 43255; conditions: Clostridioides difficile
Pseudomonas aeruginosa [18] = assay: Potency index, ratio of Ac-GF-Tic-Oic-GK-Tic-Oic-GF-Tic-Oic-GK-Tic-KKKK-CONH2 MIC to compound MIC for Pseudomonas aeruginosa Boston 41501 ATCC 27853; format: functional
A498 = assay: Antiproliferative activity against human A498 cells after 72 hrs by Celltiter-Glo luminescent cell viability assay; format: functional, cell-based; conditions: A498, 72 h
CFPAC-1 = assay: Antiproliferative activity against human CFPAC-1 cells after 72 hrs by Celltiter-Glo luminescent cell viability assay; format: functional, cell-based; conditions: CFPAC-1, 72 h
[19] = tested on: Mycobacterium tuberculosis; assay: Antibacterial activity against Mycobacterium tuberculosis H37Ra ATCC 2517 by two fold serial dilution method; format: functional
[20] = Antiproliferative activity against human MIAPaCa2 cells after 72 hrs by Celltiter-Glo luminescent cell viability assay; format: functional, cell-based; conditions: MIA PaCa-2, 72 h
[21] = Antiproliferative activity against human IGROV1 cells after 72 hrs by Celltiter-Glo luminescent cell viability assay; format: functional, cell-based; conditions: IGROV-1, 72 h
[22] = Antiproliferative activity against human PC3 cells after 72 hrs by Celltiter-Glo luminescent cell viability assay; format: functional, cell-based; conditions: PC-3, 72 h
Klebsiella aerogenes [23] = assay: Potency index, ratio of Ac-GF-Tic-Oic-GK-Tic-Oic-GF-Tic-Oic-GK-Tic-KKKK-CONH2 MIC to compound MIC for carbapenem-resistant Enterobacter aerogenes NCDC819-56 ATCC 13048; format: functional; conditions: pooled result: one value given for 3 cell lines, strains, targets or settings

Molecule	MIC (Acinetobacter baumannii [2]) [µM]	MIC (Pseudomonas aeruginosa [3]) [µM]	MIC (Klebsiella aerogenes [4]) [µM]	MIC (Enterococcus faecalis) [µM]	MIC [5] [µM]	MIC [6] [µM]	IC50 (RL) [µM]	MIC [7] [µM]	MIC [8] [µM]	IC50 [9] [µM]	IC50 [10] [µM]	MIC (Neisseria gonorrhoeae) [µM]	IC50 [11] [µM]	IC50 (MCF7) [µM]	MIC [12] [µM]	MIC (Staphylococcus aureus [13]) [µM]	IC50 (NCI-H69) [µM]	MIC [14] [µM]	IC50 (A549) [µM]	MIC (Staphylococcus aureus [16]) [µM]	further results
GENTAMICIN	2.09	8.3	1.04	–	–	–	–	–	–	–	–	–	–	–	–	–	–	–	–	–	MIC [1]: 2.09 µM
CC(=O)NCC(=O)N[C@@H](Cc1ccccc1)C(=O)NC1(C(=O)NCC(=O)N2Cc3ccccc3CC2C(=O)N[C@H](CCCCN)C(=O)NC2(C(=O)NCC(=O)N3Cc4ccccc4CC3C(=O)N[C@H](Cc3ccccc3)C(=O)NC3(C(=O)NCC(=O)N4Cc5ccccc5CC4C(=O)NCC(=O)N[C@H](CCCCN)C(=O)N4Cc5ccccc5CC4C(=O)N[C@H](CCCCN)C(=O)N[C@H](CCCCN)C(=O)N[C@H](CCCCN)C(=O)N[C@H](CCCCN)C(N)=O)CCCCC3)CCCCC2)CCCCC1 (some centres undefined)	> 45	10.3 (≈ 25 µg/mL)	> 43	> 43	> 43	5.17 (≈ 12.5 µg/mL)	6.8	20.7 (≈ 50 µg/mL)	> 43	> 7.5	> 7.5	41.3 (≈ 100 µg/mL)	> 7.5	> 7.5	10.3 (≈ 25 µg/mL)	> 43	> 7.5	> 43	> 7.5	> 43	Ratio (Enterococcus faecium): 4.3; Ratio (Acinetobacter baumannii [15]): 17.2; MIC (Streptococcus pneumoniae): > 43 µM; MIC [17]: 2.58 µM (≈ 6.24 µg/mL); Ratio (Pseudomonas aeruginosa [18]): 0.2582; IC50 (A498): > 7.5 µM; IC50 (CFPAC-1): > 7.5 µM; MIC [19]: 10.3 µM (≈ 25 µg/mL); IC50 [20]: > 7.5 µM; IC50 [21]: > 7.5 µM; IC50 [22]: > 7.5 µM; Ratio (Klebsiella aerogenes [23]): 1.075
CC(=O)NCC(=O)N[C@@H](Cc1ccccc1)C(=O)NC1(C(=O)NCC(=O)NC2(C(=O)N[C@@H](CCCNC(=N)N)C(=O)NC3(C(=O)NCC(=O)NC4(C(=O)N[C@@H](Cc5ccccc5)C(=O)NC5(C(=O)NCC(=O)NC6(C(=O)NCC(=O)N[C@@H](CCCNC(=N)N)C(=O)NC7(C(=O)N[C@@H](CCCNC(=N)N)C(=O)N[C@@H](CCCNC(=N)N)C(=O)N[C@@H](CCCNC(=N)N)C(=O)N[C@@H](CCCNC(=N)N)C(N)=O)CCCCC7)CCCCC6)CCCCC5)CCCCC4)CCCCC3)CCCCC2)CCCCC1 (Ac-GF[Ac6c]G[Ac6c]R[Ac6c]G[Ac6c]F[Ac6c]G[Ac6c]GR[Ac6c]RRRR-NH2)	2.55 (≈ 6.25 µg/mL)	2.55 (≈ 6.25 µg/mL)	2.55 (≈ 6.25 µg/mL)	1.28 (≈ 3.14 µg/mL)	> 41	5.09 (≈ 12.5 µg/mL)	1.1	40.8 (≈ 99.9 µg/mL)	20.4 (≈ 49.9 µg/mL)	6.6	6.4	2.56 (≈ 6.28 µg/mL)	6.4	7	2.56 (≈ 6.28 µg/mL)	1.28 (≈ 3.14 µg/mL)	2	> 41	6.4	5.09 (≈ 12.5 µg/mL)	MIC (Streptococcus pneumoniae): 10.2 µM (≈ 25 µg/mL); MIC [17]: 2.55 µM (≈ 6.25 µg/mL); IC50 (A498): 5.6 µM; IC50 (CFPAC-1): 2.6 µM; MIC [19]: 40.8 µM (≈ 99.9 µg/mL); IC50 [20]: 5 µM; IC50 [21]: 6 µM; IC50 [22]: 7.4 µM
CC(=O)NCC(=O)N[C@H](Cc1ccccc1)C(=O)NC1(C(=O)NCC(=O)N2C(C(=O)N[C@@H](CCCCN)C(=O)NC3(C(=O)NCC(=O)N4C(C(=O)N[C@@H](Cc5ccccc5)C(=O)NC5(C(=O)NCC(=O)N6C(C(=O)NCC(=O)N[C@@H](CCCCN)C(=O)N7C(C(=O)N[C@H](CCCCN)C(=O)N[C@H](CCCCN)C(=O)N[C@H](CCCCN)C(=O)N[C@H](CCCCN)C(N)=O)CC8CCCCC87)CC7CCCCC76)CCCCC5)CC5CCCCC54)CCCCC3)CC3CCCCC32)CCCCC1 (stereo in doubt)	20.9 (≈ 50 µg/mL)	20.9 (≈ 50 µg/mL)	> 42	> 42	> 42	41.9 (≈ 100 µg/mL)	6.7	20.9 (≈ 50 µg/mL)	> 42	> 7.5	> 7.5	20.9 (≈ 50 µg/mL)	> 7.5	> 7.5	20.9 (≈ 50 µg/mL)	> 42	> 7.5	> 42	> 7.5	> 42	Ratio (Enterococcus faecium): 4.2; Ratio (Acinetobacter baumannii [15]): 8.372; MIC (Streptococcus pneumoniae): > 42 µM; MIC [17]: 2.62 µM (≈ 6.26 µg/mL); Ratio (Pseudomonas aeruginosa [18]): 0.5232; IC50 (A498): > 7.5 µM; IC50 (CFPAC-1): > 7.5 µM; MIC [19]: 20.9 µM (≈ 50 µg/mL); IC50 [20]: > 7.5 µM; IC50 [21]: > 7.5 µM; IC50 [22]: > 7.5 µM; Ratio (Klebsiella aerogenes [23]): 1.05
CC(=O)NCC(=O)N[C@@H](Cc1ccccc1)C(=O)NC1(C(=O)NCC(=O)NC2(C(=O)N[C@@H](CCCCN)C(=O)N[C@@H](CCCCN)C(=O)NC3(C(=O)NCC(=O)NC4(C(=O)N[C@@H](Cc5ccccc5)C(=O)NC5(C(=O)NCC(=O)NC6(C(=O)NCC(=O)N[C@@H](CCCCN)C(=O)N[C@@H](CCCCN)C(=O)NC7(C(=O)N[C@@H](CCCCN)C(=O)N[C@@H](CCCCN)C(=O)N[C@@H](CCCCN)C(=O)N[C@@H](CCCCN)C(N)=O)CCCCC7)CCCCC6)CCCCC5)CCCCC4)CCCCC3)CCCCC2)CCCCC1 (Ac-GF[Ac6c]G[Ac6c]KK[Ac6c]G[Ac6c]F[Ac6c]G[Ac6c]GKK[Ac6c]KKKK-NH2)	2.46 (≈ 6.25 µg/mL)	2.46 (≈ 6.25 µg/mL)	> 39	19.7 (≈ 50 µg/mL)	> 39	2.46 (≈ 6.25 µg/mL)	2	19.7 (≈ 50 µg/mL)	19.7 (≈ 50 µg/mL)	5.4	> 7.5	0.61 (≈ 1.55 µg/mL)	2.6	6.2	2.46 (≈ 6.25 µg/mL)	19.7 (≈ 50 µg/mL)	1.9	> 39	7.2	39.4 (≈ 100 µg/mL)	MIC (Streptococcus pneumoniae): 39.4 µM (≈ 100 µg/mL); MIC [17]: 2.46 µM (≈ 6.25 µg/mL); IC50 (A498): 3 µM; IC50 (CFPAC-1): > 7.5 µM; MIC [19]: 4.92 µM (≈ 12.5 µg/mL); IC50 [20]: 7.3 µM; IC50 [21]: > 7.5 µM; IC50 [22]: > 7.5 µM
